Literature values, collected in patent publication US20100021614A1, “COMPOSITION FOR PROMOTING BIOABSORPTION OF FLAVONOID, FOOD/BEVERAGE FOR PROMOTING BIOABSORPTION OF FLAVONOID USING THE COMPOSITION, AND METHOD FOR PRODUCTION OF THE FOOD/BEVERAGE” (priority 2006, published 2010).

Conditions: Wakui et al., J. Chromatog., 575, 131-136 (1992)

O=c1cc(-c2ccccc2)oc2cc(O)c(O)c(O)c12 [baicalein]
fraction of the amount administered that is absorbed: 1/300
